The text below walks through data of paper PMC10401651, “Characterization of Uranyl (UO2^2+) Ion Binding to Amyloid Beta (Aβ) Peptides: Effects on Aβ Structure and Aggregation” (ACS Chemical Neuroscience, 2023).

Where “and” joins values, the source holds several entries; their conditions need not be identical. Equal values may be shown once. Read-outs that look alike come from different tables or passages of the source.

Test [1] deals with T1, Aβ40 (H6A, H13A, and H14A) triple-mutant, Aβ40 (NoHis) (Homo sapiens, UniProt P05067, H677A/H684A/H685A).
T1 construct: the Aβ40 (H6A, H13A, and H14A) triple-mutant; purchased AlexoTech AB (Umeå, Sweden); host or cells: recombinant
Put plainly: Binding affinity via Tyr10 fluorescence quenching, Aβ40 (NoHis) mutant. As to conditions: 20 μM Aβ40 (NoHis). An excerpt:
Synthetic lyophilized wt Aβ (1–42) peptides, abbreviated as Aβ42, with the primary sequence DAEFR5HDSGY10EVHHQ15KLVFF20AEDVG25SNKGA30IIGLM35VGGVV40IA, were purchased from JPT Peptide Technologies (Germany). Two recombinant Aβ variants were purchased as lyophilized powder from AlexoTech AB (Umeå, Sweden), namely, the Aβ40 peptide and the Aβ40 (H6A, H13A, and H14A) triple-mutant, which in the following is referred to as the Aβ40 (NoHis) mutant. The Aβ40 peptide was also purchased uniformly single-labeled with ^15N isotopes. All Aβ40 peptide variants were stored at −80 °C until use. Before measurements, they were dissolved in 10 mM NaOH and then sonicated in an ice bath for 5 min to avoid pre-formed aggregates. The samples were then diluted in either sodium phosphate buffer at pH 7.3 or in MES buffer at pH 7.3 or 5.1. The peptide concentrations were initially estimated from the weight of the dry powder and then more accurately determined with a NanoDrop spectrophotometer.
Fluorescence measurements were conducted on a Jobin Yvon Horiba Fluorolog 3 fluorescence spectrophotometer (Longjumeau, France) using a quartz cuvette with a 4 mm path length. The fluorescence emission intensity of samples containing 20 μM Aβ peptides in 20 mM MES buffer, at either pH 7.3 or pH 5.5 and without or with 50 mM SDS detergent present, was measured at 305 nm (excitation wavelength 276 nm) at 20 °C. […] Apparent dissociation constants (KD^App) were determined by fitting the plots to eq 2 [drawing 2] 2 where I0 is the initial fluorescence intensity with no added UO2^2+ ions, I∞ is the steady-state intensity at the end of the titration, [Ab] is the protein concentration, and [U] is the concentration of added UO2^2+ ions.[121],[160]

Test [2] has as its target T2, Aβ40 peptides (Homo sapiens, UniProt P05067).
T2 construct: namely, the Aβ40 peptide; purchased AlexoTech AB (Umeå, Sweden); host or cells: recombinant
Put plainly: CD spectroscopy on the Aβ40 secondary structure. How it is done:
The CD spectra for Aβ40 monomers in aqueous buffer display spectra with minima around 196–198 nm (Figure 5B,E), which is typical for a random coil conformation. […] The difference spectrum is not conclusive but might represent β-sheet conformation (Figure 5C).
CD measurements were carried out on a Chirascan CD spectrometer from Applied Photophysics Ltd. (U.K). Samples containing 600 μL of 10 μM Aβ40 peptide in 20 mM phosphate buffer, at either pH 7.3 or pH 5.1, were placed in a quartz cuvette with a 2 mm pathlength. CD spectra were recorded at 20 °C between 192 and 250 nm using steps of 0.5 nm and a sampling time of 5 s per data point. […] All data was processed with the Chirascan Pro-Data v.4.4.1 software (Applied Photophysics Ltd., U.K.), including smoothing with a ten-point smoothing filter. 50 mM SDS detergent was added to some of the samples as SDS micelles constitute a simple model for bio-membranes.[125],[126] Aβ peptides are known to insert their central and C-terminal segments as α-helices into SDS micelles, while the N-terminal Aβ segment remains unstructured outside the micelle surface.[19],[125] Because the critical micelle concentration for SDS is 8.2 mM in water at 25 °C,[152] micelles clearly formed under the experimental conditions. With approximately 62–65 SDS molecules per micelle,[156] 50 mM SDS yields a micelle concentration slightly below 1 mM, i.e., much higher than the concentration of Aβ peptides. This means that each micelle will generally contain no more than one Aβ peptide, which effectively prevents Aβ aggregation and ensures that uranyl interactions are with monomeric Aβ peptides. […] Even though 50 mM SDS would efficiently denature most folded proteins, such denaturing effects are not relevant for small intrinsically disordered peptides such as Aβ (in monomeric form).

T2 sequence (P05067 672-711 limits assumed): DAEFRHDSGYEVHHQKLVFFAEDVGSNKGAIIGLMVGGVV
T1 sequence (P05067 672-711 H677A/H684A/H685A): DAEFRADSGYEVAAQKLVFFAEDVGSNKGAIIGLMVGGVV

Consider `CC(=O)[O-].CC(=O)[O-].[O]=[U+2]=[O]` [uranyl ions, uranyl acetate], for which the Kd in test [1] (pH 7.3 + 50 mM SDS, read-out: KD^App, single replicates) was 119 µM and 124 µM and 116 µM; in test [1] (pH 7.3 + 50 mM SDS, three replicates, read-out: KD^App, average), 120 ± 4 µM; in test [1] (pH 7.3, 20 mM MES, read-out: KD^App, single replicates), 62 µM and 86 µM and 79 µM; in test [1] (pH 7.3, 20 mM MES, three replicates, read-out: KD^App, average) it was 76 ± 11 µM. Besides, the “structural transition of Aβ40 (CD)” value in test [2] (50 mM SDS micelles, pH 5.1, 10 μM Aβ40) was “structural conversion from α-helix to a random coil”; in test [2] (aqueous buffer pH 5.1, 10 μM Aβ40, 2-256 μM uranyl acetate, 20 °C) it was “conversion from random coil to β-sheet”. For the same compound, in test [2] (50 mM SDS micelles, pH 7.3, 10 μM Aβ40), the “changes in the Aβ40 CD spectrum” value is “no changes at all”. In test [2] (aqueous buffer pH 7.3, 10 μM Aβ40, 2-256 μM uranyl acetate, 20 °C), the “structural effect on Aβ40 (CD), compared with pH 5.1” value is on record as “weaker”.
